{"source": "patent US20260273020A1", "about": "“OBESTATIN FOR USE AS ANTINEOPLASTIC AGENT IN THE TREATMENT OF PANCREATIC CANCER” (SERVIZO GALEGO DE SAÚDE, priority 2023, published 2026)", "key": {"[1]": {"system": "KPC FC1242 cells", "assay": "Proliferation assay, cell counting under chronic obestatin treatment", "format": "cell-based, mouse", "description": "The murine pancreatic cancer cells KPC FC1242 were isolated from PDAC tumour tissues obtained from LSL-KrasG12D; LSL-Trp53R172H; Pdx1-Cre mice of a pure C57BL/6 background. This cell line was kindly donated by David A. Tuveson (Cold Spring Harbor Laboratory, Cold Spring Harbor, New York, US). KPC FC1242 were maintained in DMEN (Lonza, Basel, CH), and supplemented with 10% fetal bovine serum (FBS; Hyclone, GE Healthcare Life Sciences, South Logan, UT, US), 4.5 g/L glucose, 200 mg/L sodium pyruvate, 584 mg/L L-glutamine and 1% penicillin/streptomycin (Sigma-Aldrich, St. Louis, MO, US) and incubated in an atmosphere containing 5% CO2 at 37° C. These cells were periodically tested and resulted negative for mycoplasma contamination.\nFor the analysis of proliferation the cells were seeded on 12-well plates at an amount of 50,000 cells per well and maintained for 24 h in culture media (see above) to allow attachment. The medium was completely removed and replaced with serum-free media for additional 24 h. […] Twenty-four h after the last treatment, the cells were trypsinized and manually counted with a Neubauer camera.\nThe total cells were calculated using the following equations counting 10 squares: […]"}, "[2]": {"system": "KPC FC1242 cells injected in the pancreas", "assay": "Orthotopic syngeneic mice model of pancreatic cancer: tumour growth", "format": "in vivo, C57BL/6J mice", "description": "FIG. 2. Schematic representation of an orthotopic syngeneic mice model established for the determination of obestatin action on tumoral development. In brief, KPC FC1242 (1×10E6) cells were injected in the pancreas of C57BL/6J mice. After nine days of tumoral growing, the mice were randomly assigned to the different groups (n=4/group) and treated with vehicle [NaCl, 0.9% (w/v)] or obestatin (500 nmol/Kg/72 h) via ALZET® osmotic micropumps for five days. Mice without tumoral cells treatment were utilized as healthy controls.\nFIG. 3. Effect of obestatin treatment on tumoral growing. The KPC FC1242 cells (1×10E6) were injected into the pancreas of C57BL/6J mice. After nine days of tumour post-injection, mice were treated with vehicle [NaCl, 0.9% (w/v)] or obestatin (500 nmol/Kg/72 h) via ALZET® osmotic micropumps for five days. Mice without tumoral cells treatment were utilized as healthy controls (n=4). Pancreases/tumours were collected, measured and weighted at day 14 after tumour implantation. Results are expressed as mean mean±SE (*, #, P<0.05). […]\nDay 1: Implantation of KPC FC1242 Cells into Mouse Pancreas • 1. […] The cells were kept cold, on ice, until ready to inject. • 2. […] The mouse was monitored until no longer mobile and breathing has slowed. […] Then, the mouse was ready for hair removal. • 3. […]"}}}
{"substance": "obestatin", "values": [{"measurement": "effect on FBS-mediated proliferation", "setting": "[1]; 100 nM obestatin+10% FBS each 24 h for 72 h", "value": "significant inhibitory effect"}, {"measurement": "proliferation (number of cells)", "setting": "[1]; mouse obestatin (SEQ ID NO: 4) 100 nM each 24 h for 72 h, serum-free", "value": "does not activate the proliferation"}, {"measurement": "reduction in the pancreatic tumour growing in weight", "setting": "[2]; mouse obestatin 500 nmol/Kg/72 h via osmotic micropumps for five days, from day 9 after tumour injection", "value": "35.8±6.9", "unit": "%"}, {"measurement": "size and weight of tumours vs control or vehicle-treated groups", "setting": "[2]; obestatin-treated group, 500 nmol/Kg/72 h", "value": "significantly smaller"}]}
